Experimental data: patent US20050234113A1, “Antioxidant and radical scavenging activity of synthetic analogs of desferrithiocin” (University of Florida Research Foundation, Inc., priority 2002, published 2005)
Entries after “also recorded” stand apart in the source; their conditions may differ. Marks after values point to notes of the source that are not given here.

Columns and labels:
[1] = Quenching of the ABTS radical cation
Procedure: The iron chelators were tested for their ability to quench the radical cation formed from 2,2′-azinobis(3-ethylbenzothiazoline-6-sulfonic acid) (ABTS) by the method of Re et al. in Free Radic. Biol. Med. 26, 1231-1237 (1999). Briefly, a stock solution of ABTS radical cation was generated by mixing ABTS (10 mM, 2.10 mL) with K2S2O8 (8.17 mM, 0.90 mL) in H2O and […] deep blue-green ABTS radical cation was diluted in sufficient sodium phosphate (10 mM, pH 7.4) to give an A734 of about 0.900. Test compounds were added to a final concentration ranging from 1.25 to 15 μM, and the decrease in A734 was read after 1, 2, 4 and 6 min. The reaction was largely complete by 1 min, but the data presented are based on a 6-min reaction time.
In this assay, a fairly stable radical cation, ABTS^+, was examined, and Trolox, an analog of vitamin E, was used as a positive control. Briefly, the procedure involved generating the blue-green chromophore by the reaction of ABTS with K2S2O8. The radical has absorption maxima at λ=415, 645, 734, and 815 nm. The change in absorbance at 734 nm was noted 6 min after addition of the chelator of interest at various concentrations, and the slope of the ΔA734 vs. ligand concentration line was calculated.
The iron chelators were tested for their ability to quench the radical cation formed from 2,2′-azinobis(3-ethylbenzothiazoline-6-sulfonic acid) (ABTS) by a published method (Re, R., et al., Free Radical Biol. Med. 26:1231-1237 (1999). Briefly, a stock solution of ABTS radical cation was generated by mixing ABTS (10 mM, 2.10 mL) with K2S2O8 (8.17 mM, 0.90 mL) in H2O and allowing the solution to sit in the dark at room temperature for 18 hours. This stock solution of deep blue-green ABTS radical cation was diluted in sufficient sodium phosphate (10 mM, pH 7.4) to give an A734 of about 0.900. Test compounds were added to a final concentration ranging from 1.25 to 15 μM, and the decrease in A734 was read after 1, 2, 4 and 6 min. The reaction was largely complete by 1 min, but the data presented are based on a 6-min. reaction time.
This radical cation decolorization assay utilizes the pre-formed radical monocation of 2,2′-azinobis(3-ethylbenzothiazoline-6-sulfonic acid) (ABTS) and has been used to evaluate the antioxidant capacity of a large number of compounds and mixtures. Briefly, the change in absorbance of the blue-green chromophore was recorded after the addition of the chelator of interest at each of the different concentrations, and the slope of the ΔA734 vs. ligand concentration line was calculated. The positive control for this reaction was Trolox, an analogue of vitamin E. The decrease in A734 as a function of ligand concentration is the comparitor among the five compounds evaluated. Trolox, L1, DFO, (S)-4′-(HO)-DADMDFT and BDU (Table 3). All four of the iron chelators performed better than Trolox; DFO≈BDU>(S)-4′-(HO)-DADMDFT>L1>Trolox. Thus, all of these ligands could be expected to serve as excellent radical scavengers.

[2] = system: Myeloperoxidase (MPO) activity in colonic tissue; assay: Myeloperoxidase (MPO) assay in colonic tissue of rats with acetic acid-induced colitis; type: in vivo; details: 650 μmol kg^−1 intracolonically 30 min before 4% acetic acid, mean ± standard deviation
Procedure: (§1) The ligands were administered to the rats intracolonically as a suspension or solution in distilled water (2 mL) at a dose of 650 μmol kg^−1. The drug solutions were made fresh for each experiment. ROWASA®, the pharmaceutical preparation which contains 5-ASA (2 mL, 66.7 mg mL^−1) was given at a dose of 2318 μmol kg^−1. Control rats received distilled water (2 mL), administered intracolonically.
(§2) Animal care and experimental procedures were approved by the Institutional Animal Care and Use Committee. Colitis was induced by a modification of published methods. Briefly, the rats were anesthetized with sodium pentobarbital, 55 mg kg^−1 intraperitoneally. The abdomen was shaved and prepared for surgery. A midline incision was made, and the cecum and proximal colon were exteriorized. A reversible suture was placed at the junction of the cecum and proximal colon. The colon was rinsed with saline (10 mL), and the fluid and intestinal contents were gently expressed out the rectum. A gum-based rectal plug was inserted. The compound of interest, or distilled water in the control animals (2 mL), was injected intracolonically just distal to the ligature. The cecum and proximal colon were returned to the abdominal cavity; the compound was allowed to remain in the gut for 30 min. Then, the cecum and proximal colon were reexteriorized. The rectal plug was removed, and the drug was gently expressed out of the colon. Acetic acid (4%, 2 mL) was injected into the proximal colon over a 15-20-second time period. The acid was allowed to remain in the gut until one minute had passed (i.e., 40-45 seconds after the end of the acid administration). The no acid control rats received distilled water (2 mL), which was administered in the same manner as was the acetic acid. Air (10 mL) was then injected into the proximal colon to expel the acid or water. The cecal/proximal colon ligature was removed, the gut was returned to the abdominal cavity, and the incisions were closed. The animals were allowed to recover overnight and were sacrificed 24 hr later. The entire length of the colon was removed and assessed for damage both densitometrically and biochemically.
The activity of MPO was measured in colonic tissue by a modification of the method of Krawisz et al. in Gastroenterology 87, 1344-1350 (1984). Each excised colon was homogenized in 9 volumes of homogenization buffer (0.5% hexadecyltrimethylammonium bromide (HDTMA) in 50 mM sodium acetate, pH 6.0); this homogenate was centrifuged at 1200 g for 20 min at 4° C. A sample of the supernatant (1.8 mL) was transferred into a microcentrifuge tube and stored frozen at −20° C. for up to one week. Prior to assay, the thawed aliquot was centrifuged at about 10,000 g for 15 minutes at 4° C. The final supernatant (33 μL) was added to a solution of o-dianisidine HCl (0.17 mg mL^−1 in 50 mM sodium acetate, pH 6.0, made fresh daily and filtered immediately before use) (950 μL), the mixture was vortexed, and the peroxidase reaction was initiated by the addition of H2O2 to 50 mM sodium acetate, pH 6.0, made fresh daily (16.7 μL). The A470 at room temperature (ca. 23° C.) was read at 15-second intervals for 2 min. The rates were assessed graphically and are presented as change in milliabsorbance units (ΔmAU)/min per g tissue. Under these conditions, 0.1 “Unit” of purified human leukocyte myeloperoxidase (Sigma M-6908) produced a ΔA470 of about 400 mAU/min.
The biochemical measurement involves measuring the level of MPO in a sample of homogenate of the whole rat colon. When the colon is damaged by the acetic acid, there is an extravasation of neutrophils. The extent of this infiltration can serve as a quantitative marker for tissue damage. Although other leukocytes, such as eosinophils and monocytes, also contribute to the inflammatory response, their contribution is small; the majority of the cells recruited during the acute inflammatory response are neutrophils. […]

[3] = Quenching of the ABTS radical cation; details: Table 5; 6-min reaction, initial OD 1.000
[4] = system: acetic acid-induced colitis; assay: Acetic acid-induced colitis in rats, densitometric image analysis of colonic damage; type: in vivo
Procedure: as §1, §2
Gross damage was quantitated using Photoshop-based image analysis (version 5.0, Adobe Systems, Mountain View, Calif., USA) on an Apple iMac computer. The Magic Wand tool in the Select menu of Photoshop was used to place the cursor on an area of obvious damage. The tolerance level of the Magic Wand tool was set at 30. The damaged areas were automatically selected by using the Similar command in the Select menu. Then, the Eyedropper tool was used to determine the range of the damage in the highlighted areas. Individual colon images were copied to a blank Photoshop page. The Magic Wand tool, with a tolerance set to 100, was used to select all of the pixels in the colon sample. Then, the Histogram tool, which generates a graph in which each vertical line represents the number of pixels associated with a brightness level, was selected in the Image menu. The Red channel was then selected; the darker (damaged areas) appear on the left side of the histogram and the lighter (normal) areas are on the right side. The cursor was then placed on the histogram, the color range determined in an earlier step was selected, and the number of pixels encompassing that range and the percent damage were quantified automatically.
Two means were employed to assess the damage to the colon in the presence and absence of ligand, computer-based image analysis and colonic MPO measurement. The densitometric method removes much of the subjectivity involved in the simple scoring approaches. A digital image of the prepared colonic tissue is taken, and a clearly damaged segment is highlighted on the screen. Once the computer identifies all other segments of the intestine with the same or greater damage, a pixel number is generated; this number makes it possible to calculate the percentage of damaged intestine.

[5] = Prevention of iron-mediated oxidation of ascorbate (ascorbate-mediated reduction of Fe(III)); details: ascorbate 100 μM, FeCl3 30 μM, pH 7.4, ligand/Fe ratios 0-3, 40 min
Procedure: (§3) The iron chelators were tested for their ability to diminish the iron-mediated oxidation of ascorbate by the method of Dean and Nicholson (Free Radical Res. 20, 83-101 (1994)). Briefly, a solution of freshly prepared ascorbate (100 μM) in sodium phosphate buffer (5 mM, pH 7.4) was incubated in the presence of FeCl3 (30 μM) and chelator (ligand/Fe ratios varied from 0-3) for 40 min. The A265 was read at 10 and 40 min; the ΔA265 in the presence of ligand was compared to that in its absence.
The role of chelators in either inhibition or promotion of the Fenton reaction is related to their capacity to prevent Fe(III) from being reduced to Fe(II). Fe(II) is required for the reduction of H2O2 to HO. and HO^−. The assay involves spectrophotometrically monitoring the disappearance of ascorbate at pH 7.4 in the presence of FeCl3 and chelator at several ligand/Fe ratios. Under these conditions, ascorbate is oxidized to an L-ascorbyl radical anion. This anion then disproportionates to dehydroascorbic acid and ascorbate.
as §3, with “chelators nitrilotriacetic acid (NTA), 1,2-dimethyl-3-hydroxypyridin-4-one (L1), desferrioxamine B (DFO), (S)-4′-(HO)-DADMDFT, and (S,S)-1,11-Bis[5-(4-carboxyl-4,5-dihydro-1,3-thiazol-2-yl)-2,4-dihydroxyphenyl]-4,8-dioxaundecane (BDU)” for “chelators”, “Nicholson, Free” for “Nicholson (Free”, “20:” for “20,”, “(1994).” for “(1994)).”
The measurement examines the disappearance of ascorbate. It is known that DFO, a hydroxamate chelator that forms a 1:1 complex with Fe(III) at a formation constant of approximately 10^31 M^−1, prevents ascorbate-mediated reduction of Fe(III); it serves as a positive control in the present study. Both NTA and L1 promote ascorbate-mediated reduction of Fe(III) and serve as negative controls.

[6] = system: iron-loaded hepatocytes; details: cited from earlier work
[7] = Table 1, A734, six-minute reaction, pH 7.4, 1.25 to 15 μM

| SMILES | Slope × 10^3 OD units/μM (ABTS radical cation quenching) [1, 7] | MPO activity [2] | Slope × 10^3 OD units/μM (ABTS radical cation quenching) [3] | Damage (%) ([4]; 650 μmol kg^−1 intracolonically 30 min before 4% acetic acid, mean ± standard deviation) | protection against acetic acid-induced colonic damage (in words) ([4]; intracolonic, image analysis and MPO assay) | Slope × 10^3 OD units/μM (ABTS radical cation quenching) ([1]; Table 3, A734, 6-min reaction, values marked b are the inventors' unpublished results) | effect on ascorbate-mediated reduction of Fe(III) (in words) [5] | effect on ascorbate-mediated reduction of Fe(III) (in words) ([5]; listed as 1,2-dimethyl-3-hydroxypyridin-4-one) | effect on iron-mediated oxidative DNA damage (in words) [6] |
| --- | --- | --- | --- | --- | --- | --- | --- | --- | --- |
| C[C@]1(C(=O)O)CSC(c2ccc(O)cc2O)=N1 [4′-(HO)-DADFT] | −105.6 × 10^3 OD units/μM | 64192 ± 30802 mAU min^−1g of colonic tissue^−1 | −106 × 10^3 OD units/μM | 62 ± 10 | did not protect | – | – | – | – |
| Cc1c(O)c(=O)ccn1C [Compound L1, 1,2-Dimethyl-3-hydroxypyridin-4-one, reference compound] | −52.9 × 10^3 OD units/μM | – | – | – | – | −53^b × 10^3 OD units/μM | promoted the reaction; also recorded: promoted ascorbate-mediated reduction of Fe(III) | increased the rate of iron(III) reduction | potentiated iron-mediated oxidative DNA damage |
| C[C@]1(C(=O)O)CSC(c2ncccc2O)=N1 [DFT, desferrithiocin] | −0.9 × 10^3 OD units/μM | – | – | – | – | – | – | – | prevented damage |
